From ChEMBL document CHEMBL1154469, “Design and synthesis of bisubstrate inhibitors of type 1 17beta-hydroxysteroid dehydrogenase: overview and perspectives” (Eur J Med Chem, 2008)

Experiments:
[1] = biological target: T1, 17-beta-hydroxysteroid dehydrogenase type 1 (Homo sapiens, UniProt P14061); assay: Inhibition of 17beta-HSD1 expressed in HEK 293 cells assessed as conversion of [14C]estrone to [14C]estradiol using NADPH; type: cell-based, HEK293
T1 sequence (P14061 whole entry): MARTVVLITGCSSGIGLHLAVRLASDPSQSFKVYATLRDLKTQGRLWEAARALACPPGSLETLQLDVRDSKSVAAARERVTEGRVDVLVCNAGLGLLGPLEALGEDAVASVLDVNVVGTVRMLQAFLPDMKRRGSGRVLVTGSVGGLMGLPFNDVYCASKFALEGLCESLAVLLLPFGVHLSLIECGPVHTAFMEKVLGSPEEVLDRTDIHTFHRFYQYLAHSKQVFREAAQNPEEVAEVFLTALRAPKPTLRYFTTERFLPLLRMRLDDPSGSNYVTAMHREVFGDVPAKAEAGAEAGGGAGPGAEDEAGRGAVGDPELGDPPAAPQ

[2] = biological target: T2, 17-beta-hydroxysteroid dehydrogenase type 1 (Homo sapiens) (UniProt P14061); assay: Inhibition of 17beta-HSD1 expressed in HEK 293 cells assessed as conversion of [14C]estrone to [14C]estradiol at 0.1 uM using NADH; type: cell-based; details: HEK293
T2 sequence (whole entry): T1 sequence (P14061 whole entry)

Row | SMILES | IC50 [1] [nM] | inhibition [2] [%]
1 | C[C@]12CC[C@@H]3c4ccc(O)cc4CC[C@H]3[C@@H]1C[C@H](CCCCCCCCC(=O)OC[C@H]1O[C@@H](n3cnc4c(N)ncnc43)[C@H](O)[C@@H]1O)[C@@H]2O | 8 | –
2 | C[C@]12CC[C@@H]3c4ccc(O)cc4CC[C@H]3[C@@H]1C[C@H](CCCCCCCCCCCCCc1cc(N)cc(CC(=O)O)c1)[C@@H]2O | – | 27
3 | C[C@]12CC[C@@H]3c4ccc(O)cc4CC[C@H]3[C@@H]1C[C@H](CCCCCCCCCCCCCc1cccc(CC(=O)O)c1)[C@@H]2O | – | 49
